Measurements from the supplement of paper PMC10307832.

Tests used:
Experiment in all cases: relative viability (nuclei count vs DMSO), 5 days (fraction); higher = more cells survive
AT-7519 + Vorinostat = compound: O=C(NC1CCNCC1)c1n[nH]cc1NC(=O)c1c(Cl)cccc1Cl [AT-7519] + O=C(CCCCCCC(=O)Nc1ccccc1)NO [Vorinostat] (partner 1 µM)
Method in brief: (§1)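 Relative viability equals treated-well nuclei counts divided by vehicle-well nuclei counts. Counts came from 4× images of lung cancer cell lines grown in 1536-well plates for 5 days after pin-tool dosing on the day after seeding. Dosing used one drug alone or a fixed anchor-drug dose plus five library-drug doses (not always all listed) in √10 steps, and values are medians of duplicate plates.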

[1] = compound: C1=CC2=C(C=C(C(=C2N=C1)O)N=NC3=CC4=C(C=C3)C=C(C=C4)S(=O)(=O)O)S(=O)(=O)O + N=C(N)NC(=N)NCCc1ccccc1 [Phenformin] (partner 250 µM)
Method in brief: as §1

[2] = compound: C1=CC2=C(C=C(C(=C2N=C1)O)N=NC3=CC4=C(C=C3)C=C(C=C4)S(=O)(=O)O)S(=O)(=O)O + Cc1nc(NC(=O)N2CCC[C@H]2C(N)=O)sc1-c1ccnc(C(C)(C)C(F)(F)F)c1 [Alpelisib] (partner 2 µM)
Method in brief: as §1

[3] = compound: C1=CC2=C(C=C(C(=C2N=C1)O)N=NC3=CC4=C(C=C3)C=C(C=C4)S(=O)(=O)O)S(=O)(=O)O + CC(=O)Nc1cccc(-n2c(=O)n(C3CC3)c(=O)c3c(Nc4ccc(I)cc4F)n(C)c(=O)c(C)c32)c1 [Trametinib] (partner 0.02 µM)
Method in brief: as §1

Row | Cell Line | relative viability (AT-7519 + Vorinostat; first compound 0.01 µM) | relative viability (AT-7519 + Vorinostat; first compound 0.03162 µM) | relative viability (AT-7519 + Vorinostat; first compound 0.3162 µM) | relative viability (AT-7519 + Vorinostat; first compound 1 µM) | relative viability ([1]; first compound 0.08 µM) | relative viability ([1]; first compound 0.253 µM) | relative viability ([1]; first compound 0.8 µM) | relative viability ([1]; first compound 2.53 µM) | relative viability ([1]; first compound 8 µM) | relative viability ([2]; first compound 0.08 µM) | relative viability ([2]; first compound 0.253 µM) | relative viability ([2]; first compound 0.8 µM) | relative viability ([2]; first compound 2.53 µM) | relative viability ([2]; first compound 8 µM) | relative viability ([3]; first compound 0.08 µM) | relative viability ([3]; first compound 0.253 µM) | relative viability ([3]; first compound 0.8 µM) | relative viability ([3]; first compound 2.53 µM) | relative viability ([3]; first compound 8 µM)
1 | NCI-H727 | 1.17 | 1.08 | 1.11 | 0.794 | 0.564 | 0.474 | 0.502 | 0.627 | 0.572 | 0.547 | 0.578 | 0.537 | 0.609 | 0.567 | 0.344 | 0.398 | 0.351 | 0.356 | 0.335
2 | NCI-H838 | 0.758 | 0.653 | 0.62 | 0.153 | 0.497 | 0.558 | 0.557 | 0.483 | 0.551 | 1.22 | 0.959 | 1.05 | 1.05 | 0.97 | 0.566 | 0.543 | 0.453 | 0.508 | 0.653
3 | NCI-H1355 | 0.65 | 0.624 | 0.661 | 0.598 | 0.484 | 0.432 | 0.44 | 0.481 | 0.434 | 0.94 | 0.838 | 0.767 | 0.905 | 0.956 | 0.41 | 0.411 | 0.431 | 0.416 | 0.476
4 | NCI-H1395 | 0.82 | 0.655 | 0.57 | 0.565 | 0.442 | 0.405 | 0.473 | 0.45 | 0.452 | 1.08 | 1.21 | 1.09 | 1.06 | 1.23 | 1.07 | 1.02 | 1.02 | 0.911 | 1.02
5 | NCI-H1437 | 0.815 | 0.842 | 0.929 | 0.353 | 0.257 | 0.242 | 0.251 | 0.303 | 0.317 | 1.06 | 0.995 | 0.935 | 0.94 | 0.929 | 0.528 | 0.477 | 0.524 | 0.623 | 0.641
6 | NCI-H1651 | 0.606 | 0.505 | 0.56 | 0.643 | 0.386 | 0.331 | 0.385 | 0.329 | 0.337 | 1.09 | 1.02 | 1.16 | 1.08 | 0.895 | 0.799 | 0.839 | 0.832 | 0.848 | 0.744
7 | NCI-H1666 | 0.998 | 0.931 | 1.03 | 0.959 | 0.536 | 0.579 | 0.586 | 0.596 | 0.566 | 0.985 | 0.837 | 1.05 | 0.994 | 1.04 | 0.874 | 0.877 | 0.861 | 0.861 | 0.903
8 | NCI-H1734 | 0.723 | 0.831 | 0.739 | 0.535 | 0.398 | 0.381 | 0.356 | 0.326 | 0.35 | 0.746 | 0.692 | 0.636 | 0.638 | 0.689 | 0.728 | 0.654 | 0.687 | 0.72 | 0.694
9 | NCI-H1755 | 0.769 | 0.693 | 0.839 | 0.814 | 0.597 | 0.59 | 0.605 | 0.63 | 0.651 | 1.02 | 0.874 | 0.933 | 0.949 | 0.956 | 0.761 | 0.754 | 0.739 | 0.761 | 0.732
10 | NCI-H1793 | 0.514 | 0.849 | 0.615 | 0.767 | 0.416 | 0.416 | 0.346 | 0.442 | 0.379 | 0.871 | 0.706 | – | 0.858 | 0.652 | 0.53 | 0.387 | 0.452 | 0.347 | 0.348
11 | NCI-H1915 | 0.537 | 0.558 | 0.588 | 0.546 | 0.368 | 0.381 | 0.352 | 0.357 | 0.37 | 1.09 | 1.05 | 1.08 | 1.09 | 1.06 | 0.268 | 0.299 | 0.288 | 0.301 | 0.28
12 | NCI-H1944 | 0.547 | 0.528 | 0.534 | 0.436 | 0.237 | 0.199 | 0.19 | 0.199 | 0.193 | 0.842 | 0.718 | 0.832 | 0.858 | 0.838 | 0.415 | 0.385 | 0.416 | 0.474 | 0.366
13 | NCI-H1975 | 0.805 | 0.679 | 0.624 | 0.27 | 0.424 | 0.434 | 0.413 | 0.386 | 0.39 | 0.741 | 0.653 | 0.603 | 0.645 | 0.649 | 0.382 | 0.332 | 0.381 | 0.292 | 0.585
14 | NCI-H1993 | 0.629 | 0.605 | 0.82 | 0.539 | 0.492 | 0.488 | 0.537 | 0.528 | 0.527 | 0.71 | 0.682 | 0.747 | 0.705 | 0.701 | 0.49 | 0.465 | 0.575 | 0.539 | 0.504
15 | NCI-H2009 | 0.782 | 0.725 | 0.81 | 0.746 | 0.498 | 0.455 | 0.504 | 0.498 | 0.441 | 1.19 | 1.05 | 1.1 | 1.16 | 1.1 | 0.316 | 0.3 | 0.294 | 0.288 | 0.24
16 | NCI-H2023 | 0.759 | 0.503 | 0.46 | 0.269 | 0.393 | 0.394 | 0.432 | 0.376 | 0.379 | 0.606 | 0.671 | 0.636 | 0.564 | 0.624 | 0.527 | 0.58 | 0.558 | 0.589 | 0.637
17 | NCI-H2085 | 0.783 | 0.78 | 0.74 | 0.929 | 0.795 | 0.743 | 0.687 | 0.752 | 0.755 | 1.08 | 0.989 | 1.05 | 1 | 0.913 | 0.538 | 0.512 | 0.557 | 0.582 | 0.433
18 | NCI-H2087 | 1.01 | 0.632 | 0.607 | 0.206 | 0.469 | 0.447 | 0.452 | 0.455 | 0.459 | 0.938 | 0.888 | 1.08 | 0.977 | 0.989 | 0.2 | 0.213 | 0.196 | 0.217 | 0.236
19 | NCI-H2126 | 0.79 | 0.731 | 0.646 | 0.668 | 0.564 | 0.535 | 0.514 | 0.557 | 0.559 | 0.834 | 0.738 | 0.779 | 0.724 | 0.768 | 0.568 | 0.539 | 0.56 | 0.606 | 0.555
20 | NCI-H2170 | 0.718 | 0.867 | 0.869 | 0.736 | 0.46 | 0.404 | 0.417 | 0.424 | 0.391 | 0.872 | 0.802 | 0.78 | 0.82 | 0.76 | 1.06 | 0.856 | 0.83 | 0.984 | 0.927
21 | NCI-H2228 | 0.406 | 0.671 | 0.572 | 0.517 | 0.441 | 0.341 | 0.296 | 0.303 | 0.423 | 0.687 | 0.787 | 0.778 | 0.655 | 0.695 | 0.81 | 0.453 | 0.603 | 0.443 | 0.703
22 | NCI-H2347 | 0.463 | 0.527 | 0.637 | 0.379 | 0.356 | 0.318 | 0.438 | 0.558 | 0.303 | 1.03 | 0.995 | 1.07 | 1.07 | 1.06 | 0.316 | 0.303 | 0.279 | 0.262 | 0.316
23 | NCI-H2405 | 1.08 | 0.988 | 0.954 | 0.852 | 0.382 | 0.384 | 0.371 | 0.342 | 0.362 | 0.805 | 0.758 | 0.838 | 0.886 | 0.722 | 0.635 | 0.597 | 0.599 | 0.686 | 0.687
24 | NCI-H3122 | 1.06 | 1.07 | 1.04 | 0.757 | 0.369 | 0.379 | 0.378 | 0.418 | 0.323 | 0.891 | 0.795 | 0.719 | 0.732 | 0.76 | 0.218 | 0.225 | 0.227 | 0.242 | 0.225
25 | PC-3 [JPC-3] | 0.667 | 0.773 | 0.884 | 1.17 | 0.474 | 0.473 | 0.477 | 0.478 | 0.494 | 1.11 | 1.02 | 0.971 | 1.04 | 0.998 | 0.78 | 0.725 | 0.737 | 0.735 | 0.644
26 | PC-14 | 0.838 | 0.668 | 0.621 | 0.388 | 0.511 | 0.486 | 0.523 | 0.642 | 0.485 | 1.03 | 0.875 | 0.891 | 0.994 | 0.967 | 0.743 | 0.688 | 0.782 | 0.838 | 0.69
27 | RERF-LC-KJ | 0.776 | 0.666 | 0.631 | 0.459 | 0.439 | 0.39 | 0.435 | 0.439 | 0.43 | 0.907 | 0.842 | 0.795 | 0.818 | 0.843 | 0.935 | 0.864 | 0.849 | 0.96 | 0.644
28 | SK-LU-1 | 0.805 | 0.725 | 0.693 | 0.544 | 0.597 | 0.493 | 0.558 | 0.572 | 0.624 | 1.06 | 0.968 | 0.98 | 1.1 | 1.18 | 0.681 | 0.509 | 0.517 | 0.499 | 0.672
29 | SK-MES-1 | 1.2 | 1.1 | 1.05 | 0.934 | 0.731 | 0.674 | 0.672 | 0.692 | 0.652 | 0.987 | 0.845 | 0.824 | 0.944 | 0.847 | 0.514 | 0.54 | 0.587 | 0.585 | 0.548
30 | SW 1573 | 0.812 | 0.696 | 0.615 | 0.231 | 0.406 | 0.478 | 0.418 | 0.3 | 0.296 | 0.92 | 0.727 | 0.775 | 0.761 | 0.797 | 0.514 | 0.477 | 0.608 | 0.564 | 0.0865
